Results as given in BindingDB's records for doi:10.7270/Q2C24TWT (Burnham Center For Chemical Genomics, 2010).

Target: G-protein coupled receptor 35 (Homo sapiens, UniProt Q9HC97)
Assay: NF-kB luciferase suppression after PMA/ionomycin – cell-based, PMA/ionomycin inducer, set 2, SAR follow-up (AID 2792)

Chain of G-protein coupled receptor 35 (Q9HC97 whole entry): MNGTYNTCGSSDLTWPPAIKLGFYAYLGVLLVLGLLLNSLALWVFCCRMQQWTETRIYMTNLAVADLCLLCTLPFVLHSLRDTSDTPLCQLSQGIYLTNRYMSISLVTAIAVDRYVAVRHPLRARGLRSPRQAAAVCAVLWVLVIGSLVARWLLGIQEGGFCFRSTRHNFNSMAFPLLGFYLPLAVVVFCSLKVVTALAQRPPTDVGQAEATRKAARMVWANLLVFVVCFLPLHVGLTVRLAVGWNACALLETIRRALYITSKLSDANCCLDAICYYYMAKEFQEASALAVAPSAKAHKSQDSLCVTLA

| Structure (SMILES) | IC50 [µM] |
| --- | --- |
| CCCn1c(SCC(=O)Nc2nc3c(s2)CCCC3)nc2c1c(=O)n(C)c(=O)n2C [2-(1,3-Dimethyl-2,6-dioxo-7-propyl-2,3,6,7-tetrahydro-1H-purin-8-ylsulfanyl)-N-(4,5,6,7-tetrahydro-benzothiazol-2-yl)-acetamide] | 17.8 |
| CCCCn1c(CN2CCN(c3cccc(Cl)c3)CC2)nc2c1c(=O)n(C)c(=O)n2C [MLS-0004183.0001] | 3.51 |
